The values below come from patent publication US9518065B2, “IRAK inhibitors and uses thereof” (NIMBUS IRIS, INC., priority 2013, dated 2016).

Like-named read-outs stand apart in the source and are kept apart here. Bounds are passed on as bounds.

The target in one data set is T1, IRAK4 (Homo sapiens, UniProt Q9NWZ3).
T1 construct: purchased CARNA Bioscience 09-145
T1 sequence (Q9NWZ3 1-460): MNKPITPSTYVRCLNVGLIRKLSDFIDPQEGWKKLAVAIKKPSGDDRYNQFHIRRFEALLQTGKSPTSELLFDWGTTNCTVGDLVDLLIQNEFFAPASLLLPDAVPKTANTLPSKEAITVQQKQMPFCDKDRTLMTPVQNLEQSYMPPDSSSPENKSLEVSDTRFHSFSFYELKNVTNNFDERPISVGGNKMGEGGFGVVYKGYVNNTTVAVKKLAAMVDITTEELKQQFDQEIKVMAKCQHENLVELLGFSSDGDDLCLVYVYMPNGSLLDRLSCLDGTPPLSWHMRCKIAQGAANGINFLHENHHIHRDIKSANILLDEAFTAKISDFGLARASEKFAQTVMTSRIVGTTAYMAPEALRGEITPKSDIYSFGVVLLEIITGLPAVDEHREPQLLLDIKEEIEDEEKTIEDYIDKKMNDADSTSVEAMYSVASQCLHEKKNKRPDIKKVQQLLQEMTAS
The data set can be described thus: IRAK-4 activity inhibition assay (Caliper). To be noted: 3.5 nM IRAK4, 37 μM ATP, 1.5 μM Peptide 8. It counts as biochemical. An outline of the steps:
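Caliper mobility-shift assay: 3.5 nM IRAK4 preincubated 10 min with compound (10-point series, duplicates), then 1.5 μM peptide 8 and 37 μM ATP added in HEPES pH 7.5 with Mg2+/Mn2+ and DTT, 40 min at 28°C before EDTA stop. Percent inhibition from substrate conversion relative to DMSO and no-enzyme controls.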

Data set [1] concerns cytokine production in whole blood. The data set can be described thus: In vitro LPS/R848-induced cytokine production assay in whole blood. Format: cell-based, human. To be noted: read-out: TNF-α production IC50. As for the experimental part:
Compounds of the present invention were also studied in in vitro LPS/R848/CpG-induced cytokine production assays. Exemplary protocols follow.
Whole Blood (LPS): 13 mL of whole blood solution was prepared by combining whole blood in no serum medium with a ratio of 1:1. Cells were seeded in a 96-well plate with 130 ul/well of the cell suspension according to the plate map. 9 ul of 30 mM compound solution was added into the wells in the assigned rows, then serial solutions with 4× dilutions were made. That is, add 9 uL of 100% DMSO into each of the rest wells and take 3 uL of compound solution from the one-step higher concentration solution and mix well with the DMSO. For the second compound master plate, 196 uL of the growth medium (no serum media) were added into each of the wells and 4 uL of the compound solution from the first compound master plate was added and mixed with the media. Cells were treated for 0.5 h by adding 20 uL of the compound and the control solutions prepared in the second master plate to each well according to the plate map. Cells were stimulated with a) 0.1 ug/mL of LPS overnight for whole blood assay; b) 0.01 ug/mL of LPS overnight for hWBC assay. Plates were sealed with sealing films and the plates were centrifuged at 3000 rpm at 4 degrees C. for 5 min. The supernatants were transferred, and 100 ul of working Capture antibody solution was added to each well. The plates were sealed and incubated overnight at RT. IL-6, IFN-α or TNF-α detection antibody labeled with biotin: Added 100 uL of the Detection Antibody solution to each well. Covered the plate and incubated for 2 h at RT. Added 100 uL of Streptavidin-HRP solution to each well. Covered the plate and incubate for 20 min at RT in dark. Added 100 uL of Substrate Solution to each well. Incubated for 20 min at RT in dark. Added 50 uL of Stop Solution to each well. Gently tapped the plate to ensure thorough mixing. Determined the optical density of each well immediately, using a microplate reader set to 450 nm and also read at 540 nm or 570 nm for correction if wavelength correction is not available.

Data set [2] concerns LPS induced TNF production. The data set can be described thus: In vivo LPS-induced cytokine production in rats. On the set-up: species or system female Lewis rats. The settings on record: for drug concentration corresponding to the minimal efficacious dose: 10 mg/kg PO; for minimal efficacious dose for inhibition of LPS induced TNF production in vivo: PO in 0.5% methylcellulose, LPS 2 hours after dose, serum TNF-α one hour later. On the procedure: Compounds of the present invention were also assayed in vivo to determine their inhibitory effect on LPS-induced cytokine production. In vivo studies of LPS-induced cytokine production was conducted in female Lewis rats (n=10 each). Rats were dosed with compound at 30, 10, 3, or 1 mg/kg, 5 mg/kg dexamethasone, or vehicle, dosed PO in 0.5% methylcellulose. After 2 hours, rats were administered LPS in PBS at 0.1 mg/mL, 1 mL/kg. One hour later, rats were bled and serum was analyzed for TNF-α produced by ELISA (eBioscience).

Setting [3] is: Homo sapiens, LPS 0.1 uM, overnight.

For “2-methyl-N5-(1-methyl-1H-pyrazol-4-yl)-N7-((1r,4r)-4-morpholinocyclohexyl)thiazolo[5,4-d]pyrimidine-5,7-diamine [Compound I-24]”, the IC50 – broadly, the concentration needed to halve the response being measured – against IRAK4 is ≤ 1000 nM; in data set [1] (LPS 0.1 uM, overnight) it was ≥ 5000 nM; in data set [1] (R848 1 uM, 20 h), 1000 to 5000 nM. Besides, in data set [2], the “drug concentration corresponding to the minimal efficacious dose” value (shortened to “drug concentration corresponding”) came out at 6600 nM. In data set [2], the “minimal efficacious dose for inhibition of LPS induced TNF production in vivo” value (from here on “minimal efficacious dose for inhibition”) is recorded as 10 mg/kg.

For `CCc1nc2c(N[C@H]3CC[C@H](N4CCOCC4)CC3)nc(Nc3cnn(C)c3)nc2s1` [Compound I-7, 2-ethyl-N5-(1-methyl-1H-pyrazol-4-yl)-N7-((1r,4r)-4-morpholinocyclohexyl)-thiazolo[5,4-d]pyrimidine-5,7-diamine], the half-maximal inhibitory concentration (IC50) on IRAK4 was ≤ 1000 nM; in data set [1] (setting [3]), ≥ 5000 nM; in data set [1] (Homo sapiens, R848 1 uM, 20 h), 1000 to 5000 nM. In data set [2], the “drug concentration corresponding” value is 1600 nM. In addition, the “minimal efficacious dose for inhibition” value in data set [2] came to 10 mg/kg.

On to `CCc1nc2c(N[C@H]3CC[C@H](N4CCOCC4)CC3)nc(Nc3cnn(C4CCOCC4)c3)nc2s1` [Compound I-9, 2-ethyl-5-N-[1-(oxan-4-yl)-1H-pyrazol-4-yl]-7-N—[trans-4-(morpholin-4-yl)cyclohexyl]-[1,3]thiazolo[5,4-d]pyrimidine-5,7-diamine], for which the IC50 is ≤ 1000 nM against IRAK4; 1000 to 5000 nM in data set [1] (setting [3]); 250 to 1000 nM in data set [1] (Homo sapiens, R848 1 uM, 20 h). For the same molecule, in data set [2], the “drug concentration corresponding” value was 1050 nM. Moreover, the “minimal efficacious dose for inhibition” value in data set [2] amounted to 10 mg/kg.
